Our source for the IC50 values is patent US9732032B2, “3-aminocyclopentane carboxamide derivatives” (Merck Patent GmbH, priority 2012, dated 2017).

This assay has as its target T1, human recombinant full-length fatty acid synthase (FASN) (Homo sapiens, UniProt P49327).
T1 construct: human recombinant full-length fatty acid synthase; made in house; host or cells: SF9 cells
As to the kind of experiment: Biochemical activity testing of human fatty acid synthase FASN (NADPH fluorescence intensity assay). As to conditions: NADPH fluorescence decrease (ex 340 nm / em 460 nm), 30 minutes at room temperature, read-out: IC50 FASN (enzyme assay). From the text:
aq (aqueous), h (hour), g (gram), L (liter), mg (milligram), MHz (Megahertz), (melting point), eq (equivalent), mL (milliliter), L (microliter), ACN (acetonitrile), AcOH (acetic acid), CDCl3 (deuterated chloroform), CD3OD (deuterated methanol), CH3CN (acetonitrile), c-hex (cyclohexane), DCC (dicyclohexyl carbodiimide), DCM (dichloromethane), DIC (diisopropyl carbodiimide), DIEA (diisopropylethyl-amine), DMF (dimethylformamide), DMSO (dimethylsulfoxide), DMSO-d6 (deuterated dimethylsulfoxide), EDC (1-(3-dimethyl-amino-propyl)-3-ethylcarbodiimide), ESI (Electro-spray ionization), EtOAc (ethyl acetate), Et2O (diethyl ether), EtOH (ethanol), HATU (dimethylamino-([1,2,3]triazolo[4,5-b]pyridin-3-yloxy)-methylene]-dimethylammonium hexafluorophosphate), HPLC (High Performance Liquid Chromatography), i-PrOH (2-propanol), K2CO3 (potassium carbonate), LC (Liquid Chromatography), MeOH (methanol), MgSO4 (magnesium sulfate), MS (mass spectrometry), MTBE (Methyl tert-butyl ether), NaHCO3 (sodium bicarbonate), NaBH4 (sodium borohydride), NMM (N-methyl morpholine), NMR (Nuclear Magnetic Resonance), PyBOP (benzotriazole-1-yl-oxy-trispyrrolidino-phosphonium hexafluorophosphate), RT (room temperature), Rt (retention time), SPE (solid phase extraction), TBTU (2-(1-H-benzotriazole-1-yl)-1,1,3,3-tetramethyluromium tetrafluoro borate), TEA (triethylamine), TFA (trifluoroacetic acid), THF (tetrahydrofuran), TLC (Thin Layer Chromatography), UV (Ultraviolet). Description of the In Vitro Assays Abbreviations: GST=Glutathione-S-transferase FRET=Fluorescence resonance energy transfer HTRF®=(homogenous time resolved fluorescence) HEPES=4-(2-hydroxyethyl)-1-piperazine ethanesulfonic acid buffer DTT=Dithiothreitol BSA=bovine serum albumin CHAPS=detergent; CHAPS=3[(3-cholamidopropyl)dimethylammonio]-1-propanesulfonate Biochemical Activity Testing of Human Fatty Acid Synthase FASN
Fatty acid synthase FASN is a multifunctional enzyme with seven catalytic activities thereby synthesising long chain fatty acids especially palmitoyl-CoA in the presence of co-factor NADPH starting from the substrates acetyl-CoA and malonyl-CoA. The reductive synthesis is realized by the oxidation of NADPH to NADP. Since NADPH has a high fluorescence intensity quantum yield compared to NADP with excitation at 340 nm and emission at 460 nm, the reaction can be monitored via the decrease in fluorescence intensity. The biochemical FASN activity testing was performed as 384 well two-time-point kinetic fluorescence intensity assay format in Greiner low volume medium binding 384-well black microtiter plates in a total assay volume of 8 μl and was used for high throughput screen. In each well 3 μl 40 nM human recombinant full-length fatty acid synthase (produced in-house in SF9 cells) were dispensed in the following assay buffer: 50 mM potassium phosphate buffer pH 7.0, 0.005% (w/v) BSA, 2 mM Glutathione, 0.02% Tween-20. Then 2 μl of 200 μM NADPH in assay buffer were added, followed by the addition of the test compounds in 10 dilution concentrations starting with 30 μM (final concentration) to get a final DMSO content of 1% (v/v). The mixture was incubated for at least 15 min at room temperature. After the pre-incubation the enzymatic reaction was started by the addition of 2 μl substrate solution (80 μM acetyl-CoA, 240 μM malonyl-CoA). A first fluorescence intensity measurement (time point one) was performed with an Envision multimode reader (Perkin Elmer LAS Germany GmbH) at excitation wavelength 340 nm (lamp mode) and emission wavelength 460 nm. The reaction was incubated for 30 minutes at room temperature. After this the fluorescence intensity was measured again in the Envision using the same parameters as described above (second time point measurement). The data were analysed by subtracting the first time point measurement value from the second time point measurement value (after the enzymatic reaction). The differences of the emission signals were determined. […]

The structures appear in SMILES notation.

T1 sequence (P49327 whole entry): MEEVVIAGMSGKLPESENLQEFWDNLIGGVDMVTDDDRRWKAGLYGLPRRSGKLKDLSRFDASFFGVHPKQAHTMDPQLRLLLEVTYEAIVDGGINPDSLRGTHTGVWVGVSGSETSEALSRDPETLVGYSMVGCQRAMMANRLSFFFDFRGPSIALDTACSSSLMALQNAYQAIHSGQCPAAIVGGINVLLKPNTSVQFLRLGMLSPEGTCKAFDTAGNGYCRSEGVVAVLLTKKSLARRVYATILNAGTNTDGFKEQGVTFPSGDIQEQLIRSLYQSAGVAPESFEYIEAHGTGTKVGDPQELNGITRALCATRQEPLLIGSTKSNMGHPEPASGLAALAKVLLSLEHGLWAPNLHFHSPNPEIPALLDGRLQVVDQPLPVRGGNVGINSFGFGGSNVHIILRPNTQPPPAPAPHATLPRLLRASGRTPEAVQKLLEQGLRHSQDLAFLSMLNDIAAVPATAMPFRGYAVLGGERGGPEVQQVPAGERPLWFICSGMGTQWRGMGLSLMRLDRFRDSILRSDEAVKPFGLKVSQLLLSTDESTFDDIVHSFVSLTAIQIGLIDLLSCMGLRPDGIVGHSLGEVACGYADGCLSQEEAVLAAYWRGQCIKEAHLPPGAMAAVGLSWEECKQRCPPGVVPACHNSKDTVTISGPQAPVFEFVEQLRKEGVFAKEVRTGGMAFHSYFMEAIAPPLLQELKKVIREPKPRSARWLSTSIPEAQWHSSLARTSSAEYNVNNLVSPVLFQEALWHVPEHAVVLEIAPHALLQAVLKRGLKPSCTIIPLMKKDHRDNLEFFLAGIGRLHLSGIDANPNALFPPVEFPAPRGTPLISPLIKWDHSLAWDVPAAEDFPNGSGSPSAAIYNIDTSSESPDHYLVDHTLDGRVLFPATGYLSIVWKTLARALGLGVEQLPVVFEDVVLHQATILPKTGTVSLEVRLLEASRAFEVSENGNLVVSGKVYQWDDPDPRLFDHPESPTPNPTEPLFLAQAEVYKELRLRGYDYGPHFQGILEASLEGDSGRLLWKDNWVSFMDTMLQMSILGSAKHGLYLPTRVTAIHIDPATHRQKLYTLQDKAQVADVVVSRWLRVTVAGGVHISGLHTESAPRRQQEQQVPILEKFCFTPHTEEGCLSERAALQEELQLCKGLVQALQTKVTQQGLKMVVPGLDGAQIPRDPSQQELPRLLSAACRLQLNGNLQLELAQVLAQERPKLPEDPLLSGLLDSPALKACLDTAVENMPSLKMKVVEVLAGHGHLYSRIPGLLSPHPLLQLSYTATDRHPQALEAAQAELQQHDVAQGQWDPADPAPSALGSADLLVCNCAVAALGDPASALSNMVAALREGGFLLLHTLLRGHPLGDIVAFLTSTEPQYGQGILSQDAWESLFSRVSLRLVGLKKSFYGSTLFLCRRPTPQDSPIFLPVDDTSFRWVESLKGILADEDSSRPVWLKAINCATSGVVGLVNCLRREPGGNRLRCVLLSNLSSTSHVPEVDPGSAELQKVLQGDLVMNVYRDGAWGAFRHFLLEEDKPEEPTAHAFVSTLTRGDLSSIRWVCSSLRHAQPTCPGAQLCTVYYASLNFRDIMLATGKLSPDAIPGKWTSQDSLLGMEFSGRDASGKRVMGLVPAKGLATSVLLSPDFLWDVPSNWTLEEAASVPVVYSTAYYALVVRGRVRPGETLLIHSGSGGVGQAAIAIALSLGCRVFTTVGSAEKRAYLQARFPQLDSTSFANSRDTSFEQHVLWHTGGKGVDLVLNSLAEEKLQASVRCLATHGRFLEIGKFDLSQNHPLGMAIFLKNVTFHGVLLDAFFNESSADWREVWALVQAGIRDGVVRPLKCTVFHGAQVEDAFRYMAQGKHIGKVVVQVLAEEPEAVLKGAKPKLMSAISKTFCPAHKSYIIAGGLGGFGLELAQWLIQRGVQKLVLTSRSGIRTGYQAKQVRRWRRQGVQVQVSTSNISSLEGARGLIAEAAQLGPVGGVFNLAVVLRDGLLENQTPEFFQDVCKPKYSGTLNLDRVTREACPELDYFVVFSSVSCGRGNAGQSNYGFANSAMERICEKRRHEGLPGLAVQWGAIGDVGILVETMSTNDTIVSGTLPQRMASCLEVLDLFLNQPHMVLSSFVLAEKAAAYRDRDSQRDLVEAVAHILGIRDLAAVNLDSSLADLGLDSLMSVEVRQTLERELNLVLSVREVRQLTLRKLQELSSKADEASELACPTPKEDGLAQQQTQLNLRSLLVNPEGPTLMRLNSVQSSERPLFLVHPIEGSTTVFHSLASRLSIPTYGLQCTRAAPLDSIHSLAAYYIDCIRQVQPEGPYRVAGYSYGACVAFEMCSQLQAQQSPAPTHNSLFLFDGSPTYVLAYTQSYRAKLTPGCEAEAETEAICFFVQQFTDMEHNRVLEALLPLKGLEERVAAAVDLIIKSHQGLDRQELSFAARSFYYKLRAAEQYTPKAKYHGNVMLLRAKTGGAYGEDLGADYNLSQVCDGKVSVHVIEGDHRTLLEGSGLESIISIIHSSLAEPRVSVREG

Regarding `CC[C@@H](C)NC(=O)[C@H]1CC[C@@H](N(C)C(=O)c2ccc(-c3nc4ccccc4o3)cc2)C1` [Compound A75, 4-(1,3-benzoxazol-2-yl)-N-methyl-N-[(1R,3S)-3-[[(1R)-1-methylpropyl]-carbamoyl]cyclopentyl]benzamide], the concentration for half-maximal inhibition (IC50) – broadly, the concentration that inhibits the measured activity by half – was under 300 nM. As for `CN(C(=O)c1ccc(-c2nc3ccccc3o2)cc1)[C@@H]1CC[C@H](C(=O)NC2CCC2)C1` [Compound A76, 4-(1,3-benzoxazol-2-yl)-N-[(1R,3S)-3-(cyclobutylcarbamoyl)cyclopentyl]-N-methyl-benzamide], the IC50 was under 300 nM. Under `CN(C(=O)c1ccc(-c2nc3ccccc3o2)cc1)[C@@H]1CC[C@H](C(=O)N[C@H]2C[C@H](O)C2)C1` [Compound A77, 4-(1,3-benzoxazol-2-yl)-N-[(1R,3S)-3-[(trans-3-hydroxycyclobutyl)-carbamoyl]cyclopentyl]-N-methyl-benzamide] stands under 300 nM. Under `CN(C(=O)c1ccc(-c2nc3ccccc3o2)cc1)[C@@H]1CC[C@H](C(=O)N[C@H]2C[C@@H](O)C2)C1` [Compound A78, 4-(1,3-benzoxazol-2-yl)-N-[(1R,3S)-3-[(cis-3-hydroxycyclobutyl)-carbamoyl]cyclopentyl]-N-methyl-benzamide] stands under 300 nM; under `COc1cc(-c2nc3ccccc3o2)ccc1C(=O)N(C)[C@@H]1CC[C@H](C(=O)NC2(C)CC2)C1` [Compound A79, 4-(1,3-benzoxazol-2-yl)-2-methoxy-N-methyl-N-[(1R,3S)-3-[(1-methylcyclopropyl)carbamoyl]cyclopentyl]benzamide], 300 to 3000 nM. For `CN(C(=O)c1ccc(-c2ccncc2)cc1)[C@@H]1CC[C@H](C(=O)NC2(C)CC2)C1` [Compound A80, N-methyl-N-[(1R,3S)-3-[(1-methylcyclopropyl)carbamoyl]cyclopentyl]-4-(4-pyridyl)benzamide] the value was under 300 nM; for `CN(C(=O)c1ccc(-c2ccc(C#N)cc2)cc1)[C@@H]1CC[C@H](C(=O)NC2(C)CC2)C1` [Compound A81, 4-(4-cyanophenyl)-N-methyl-N-[(1R,3S)-3-[(1-methylcyclopropyl)-carbamoyl]cyclopentyl]benzamide], under 300 nM; for `CN(C)C(=O)[C@H]1CC[C@@H](N(C)C(=O)c2ccc(-c3nc4ccccc4o3)cc2)C1` [Compound A82, 4-benzoxazol-2-yl-N-((1R,3S)-3-dimethylcarbamoyl-cyclopentyl)-N-methyl-benzamide], 300 to 3000 nM.

For `CN(C(=O)c1ccc(-c2cccnc2)cc1)[C@@H]1CC[C@H](C(=O)NC2(C)CC2)C1` [Compound A83, N-methyl-N-[(1R,3S)-3-(1-methyl-cyclopropylcarbamoyl)-cyclopentyl]-4-pyridin-3-yl-benzamide], the IC50 was under 300 nM.

Turning to `CN(C(=O)c1ccc(-c2nc3ccccc3o2)cc1)[C@@H]1CC[C@H](C(=O)NC2(C)CCC2)C1` [Compound A84, 4-benzoxazol-2-yl-N-methyl-N-[(1R,3S)-3-(1-methyl-cyclobutylcarbamoyl)-cyclopentyl]-benzamide], the half-inhibitory concentration (IC50) is under 300 nM. For `COc1cc(C(=O)N(C)[C@@H]2CC[C@H](C(=O)NC3(C)CC3)C2)ccc1-c1nc2ccccc2o1` [Compound A85, 4-benzoxazol-2-yl-3-methoxy-N-methyl-N-[(1R,3S)-3-(1-methyl-cyclopropylcarbamoyl)-cyclopentyl]-benzamide] the value was under 300 nM; for `CN(C(=O)c1ccc(-c2nc3ccccc3o2)cc1)[C@@H]1CC[C@H](C(N)=O)C1` [Compound A86, 4-benzoxazol-2-yl-N-((1R,3S)-3-carbamoyl-cyclopentyl)-N-methyl-benzamide], 300 to 3000 nM; for `CCNC(=O)[C@H]1CC[C@@H](N(C)C(=O)c2ccc(-c3cn4ccc(C#N)cc4n3)cc2)C1` [Compound A87, 4-(7-cyano-imidazo[1,2-a]pyridin-2-yl)-N-((1R,3S)-3-ethylcarbamoyl-cyclopentyl)-N-methyl-benzamide], 300 to 3000 nM. Under `CCNC(=O)[C@H]1CC[C@@H](N(C)C(=O)c2ccc(-c3noc(C)n3)cc2)C1` [Compound A88, N-((1R,3S)-3-ethylcarbamoyl-cyclopentyl)-N-methyl-4-(5-methyl-[1,2,4]oxadiazol-3-yl)-benzamide] stands 3000 to 50000 nM; under `C[C@@H](CO)NC(=O)[C@H]1CC[C@@H](N(C)C(=O)c2ccc(-c3nc4ccccc4o3)cc2)C1` [Compound A90, 4-benzoxazol-2-yl-N-[(1R,3S)-3-((S)-2-hydroxy-1-methyl-ethylcarbamoyl)-cyclopentyl]-N-methyl-benzamide], 300 to 3000 nM; under `C[C@H](CO)NC(=O)[C@H]1CC[C@@H](N(C)C(=O)c2ccc(-c3nc4ccccc4o3)cc2)C1` [Compound A91, 4-benzoxazol-2-yl-N-[(1R,3S)-3-((R)-2-hydroxy-1-methyl-ethylcarbamoyl)-cyclopentyl]-N-methyl-benzamide], under 300 nM. For `COC[C@H](C)NC(=O)[C@H]1CC[C@@H](N(C)C(=O)c2ccc(-c3nc4ccccc4o3)cc2)C1` [Compound A92, 4-benzoxazol-2-yl-N-[(1R,3S)-3-((S)-2-methoxy-1-methyl-ethylcarbamoyl)-cyclopentyl]-N-methyl-benzamide] the value was 300 to 3000 nM. For `CCNC(=O)[C@H]1CC[C@@H](N(C)C(=O)c2ccc(-c3nc4cc(S(N)(=O)=O)ccc4o3)cc2)C1` [Compound A93, N-((1R,3S)-3-ethylcarbamoyl-cyclopentyl)-N-methyl-4-(5-sulfamoyl-benzooxazol-2-yl)-benzamide], the IC50 is 3000 to 50000 nM. For `CCNC(=O)[C@H]1CC[C@@H](N(C)C(=O)c2ccc(-c3nc4cc(F)cc(F)c4o3)cc2)C1` [Compound A96, 4-(5,7-difluoro-benzoxazol-2-yl)-N-((1R,3S)-3-ethylcarbamoyl-cyclopentyl)-N-methyl-benzamide] the value was under 300 nM. `CCNC(=O)[C@H]1CC[C@@H](N(C)C(=O)c2ccc(-c3nc4ccc(F)cc4o3)cc2)C1` [Compound A98, N-((1R,3S)-3-ethylcarbamoyl-cyclopentyl)-4-(6-fluoro-benzooxazol-2-yl)-N-methyl-benzamide]: the IC50 was under 300 nM. For `CN(C(=O)c1ccc(-c2nc3ccccc3o2)cc1)[C@@H]1CC[C@H](C(=O)NC(C)(C)CO)C1` [Compound A99, 4-benzoxazol-2-yl-N-[(1R,3S)-3-(2-hydroxy-1,1-dimethyl-ethylcarbamoyl)-cyclopentyl]-N-methyl-benzamide] the value was 300 to 3000 nM. As for `CCNC(=O)[C@H]1CC[C@@H](N(C)C(=O)c2ccc(-c3nc4cc(F)c(F)cc4o3)cc2)C1` [Compound A101, 4-(5,6-difluoro-benzoxazol-2-yl)-N-((1R,3S)-3-ethylcarbamoyl-cyclopentyl)-N-methyl-benzamide], the IC50 was under 300 nM. In the case of `CCNC(=O)[C@H]1CC[C@@H](N(C)C(=O)c2ccc(-c3cccnc3)cc2)C1` [Compound A102, N-((1R,3S)-3-ethylcarbamoyl-cyclopentyl)-N-methyl-4-pyridin-3-yl-benzamide], the IC50 is under 300 nM. For `CCNC(=O)[C@H]1CC[C@@H](N(C)C(=O)c2ccc(-c3ccc(C#N)cc3)cc2)C1` [Compound A103, 4′-cyano-biphenyl-4-carboxylic acid ((1R,3S)-3-ethylcarbamoyl-cyclopentyl)-methyl-amide] the value was under 300 nM.
